Experimental data from patent publication US20140073801A1, “PYRROLIDINE DERIVATIVES AS SELECTIVE GLYCOSIDASE INHIBITORS AND USES THEREOF” (Summit Corporation Plc, priority 2011, published 2014).

How the values were obtained:
Type in all cases: biochemical
[1] = biological target: T1, human β-hexosaminidase [human placenta] (HexA/B); assay: Determination of IC50 values for inhibition of human β-hexosaminidase; conditions: human β-hexosaminidase, human placenta; room temperature, thirty minutes
T1 construct: other: human β-hexosaminidase, human placenta; room temperature, thirty minutes
Description: (§1) Inhibitors identified from the screen described in Example 1 were evaluated for IC50 against human β-hexosaminidase [human placenta, Sigma-Aldrich] using a range of inhibitor concentrations from 300 μM to 0.003 μM or 100 μM to 0.001 μM and the following reaction conditions:
(§2) Reactions were carried out at room temperature for thirty minutes and then quenched through the addition of 150 μl 0.5M Na2CO3. Fluorescence readings were taken at excitation wavelength 360 nm and emission wavelength 450 nm. IC50 values were calculated using XLFit 4. The selectivity ratio for inhibition of human O-GlcNAcase over human β-hexosaminidase is defined here as:
(§3) IC50(human β-hexosaminidase)/IC50(Human OGA)

[2] = system: human β-hexosaminidase [human placenta] (HexA/B); assay: as above; conditions: ratio
Description: as §1, §2, §3

human OGA = biological target: T2, human OGA (Homo sapiens, UniProt O60502); assay: Determination of IC50 values for inhibition of human OGA
T2 construct: made in house
T2 sequence (O60502 1-916): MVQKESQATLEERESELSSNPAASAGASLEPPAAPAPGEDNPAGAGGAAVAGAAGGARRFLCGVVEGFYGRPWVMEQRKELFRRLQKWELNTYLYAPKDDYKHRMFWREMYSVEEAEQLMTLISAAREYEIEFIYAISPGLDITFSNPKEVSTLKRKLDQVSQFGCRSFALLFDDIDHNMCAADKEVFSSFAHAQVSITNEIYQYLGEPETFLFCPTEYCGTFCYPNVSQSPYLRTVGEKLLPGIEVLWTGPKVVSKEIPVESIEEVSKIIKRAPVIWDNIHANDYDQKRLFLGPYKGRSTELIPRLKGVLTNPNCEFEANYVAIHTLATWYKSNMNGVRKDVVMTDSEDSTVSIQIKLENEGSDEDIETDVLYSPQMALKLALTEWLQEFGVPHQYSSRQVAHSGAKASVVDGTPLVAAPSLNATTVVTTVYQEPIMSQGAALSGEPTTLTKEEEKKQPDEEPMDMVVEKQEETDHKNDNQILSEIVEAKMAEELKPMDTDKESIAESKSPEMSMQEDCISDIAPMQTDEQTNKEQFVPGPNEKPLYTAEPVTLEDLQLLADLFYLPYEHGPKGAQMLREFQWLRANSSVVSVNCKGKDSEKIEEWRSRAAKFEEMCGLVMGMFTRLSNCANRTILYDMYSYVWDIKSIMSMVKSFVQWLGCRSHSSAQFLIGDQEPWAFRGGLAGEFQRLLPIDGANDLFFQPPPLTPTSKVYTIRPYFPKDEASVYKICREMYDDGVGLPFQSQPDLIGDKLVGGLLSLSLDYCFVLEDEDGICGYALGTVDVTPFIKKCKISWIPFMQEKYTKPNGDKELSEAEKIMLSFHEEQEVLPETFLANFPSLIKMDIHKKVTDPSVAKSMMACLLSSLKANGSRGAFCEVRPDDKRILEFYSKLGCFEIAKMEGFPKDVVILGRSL
Description: Inhibitors identified from the screen described in Example 1 were evaluated for IC50 using a procedure adapted from Biochem. J. 2009, 420, 221-227. IC50 determination was carried out using a range of inhibitor concentrations from 300 μM to 0.003 μM or 100 μM to 0.001 μM. IC50 values were calculated using XLFit 4.

| IC50 [1] [µM] | Selectivity: IC50(human β-hexosaminidase)/IC50(Human OGA) [2] | IC50 (human OGA) [nM] | SMILES |
| --- | --- | --- | --- |
| > 300 | >178.57 | 1680 | CC(=O)NC[C@H]1N[C@H](CO)[C@@H](O)[C@H]1O [Compound A033, N-(((2R,3S,4R,5R)-3,4-dihydroxy-5-(hydroxymethyl)pyrrolidin-2-yl)methyl)acetamide] |
| > 300 | >12.6 | 23800 | O=C(C[C@H]1N[C@H](CO)[C@@H](O)[C@H]1O)NC1CC1 [Compound A048, N-cyclopropyl-2-((2R,3S,4R,5R)-3,4-dihydroxy-5-(hydroxymethyl)pyrrolidin-2-yl)acetamide] |
| > 300 | >81 | 3660 | CCCCCCCCCN1[C@H](CC(=O)NC(C)C)[C@H](O)[C@H](O)[C@H]1CO [Compound A014, 2-((2R,3S,4R,5R)-3,4-dihydroxy-5-(hydroxymethyl)-1-nonylpyrrolidin-2-yl)-N-isopropylacetamide] |
| > 300 | >10.43 | 28800 | CCNC(=O)C[C@@H]1N[C@H](CO)[C@@H](O)[C@@H]1O [Compound A051, 2-((2S,3R,4R,5R)-3,4-dihydroxy-5-(hydroxymethyl)pyrrolidin-2-yl)-N-ethylacetamide] |
| > 300 | >76.92 | 3900 | CCCCCCN1[C@H](CNC(C)=O)[C@H](O)[C@H](O)[C@H]1CO [Compound A035, N-(((2R,3S,4R,5R)-1-hexyl-3,4-dihydroxy-5-(hydroxymethyl)pyrrolidin-2-yl)methyl)acetamide] |
| > 300 | >2.3 | 129000 | CC(C)CNC(=O)C[C@H]1N[C@H](CO)[C@@H](O)[C@H]1O [Compound A025, 2-((2R,3S,4R,5R)-3,4-dihydroxy-5-(hydroxymethyl)pyrrolidin-2-yl)-N-isobutylacetamide] |
| 15 | >5000 | < 3 | CNC(=O)C[C@@H]1[C@H](O)[C@H](O)[C@@H](CO)N1CCCCCNS(=O)(=O)c1ccc(Oc2ccccc2)cc1 [Compound A067, 2-((2R,3S,4R,5R)-3,4-dihydroxy-5-(hydroxymethyl)-1-(5-(4-phenoxyphenylsulfonamido)pentyl)pyrrolidin-2-yl)-N-methylacetamide] |
| 166 | 22133 | 7.5 | CCNC(=O)C[C@@H]1[C@@H](O)[C@H](O)[C@@H](CO)N1CCCc1ccc(S(=O)(=O)NCC)cc1 [Compound A070, N-ethyl-2-((2R,3R,4R,5R)-1-(3-(4-(N-ethylsulfamoyl)phenyl)propyl)-3,4-dihydroxy-5-(hydroxymethyl)pyrrolidin-2-yl)acetamide] |
| 0.0107 | 0.02 | 580 | CCCCCCN1[C@H](CC(=O)NC)[C@@H](O)[C@H](O)[C@@H]1CO [Compound A056, 2-((2R,3R,4R,5S)-1-hexyl-3,4-dihydroxy-5-(hydroxymethyl)pyrrolidin-2-yl)-N-methylacetamide] |
| 4.26 | 0.11 | 39200 | CNC(=O)C[C@H]1[C@@H](O)[C@H](O)[C@H](CO)N1CCCc1ccccc1 [Compound A057, 2-((2S,3R,4R,5S)-3,4-dihydroxy-5-(hydroxymethyl)-1-(3-phenylpropyl)pyrrolidin-2-yl)-N-methylacetamide] |
| > 300 | >9174 | 33 | CCCCCCCCCN1[C@H](CC(=O)NC)[C@H](O)[C@H](O)[C@H]1CO [Compound A011, 2-((2R,3S,4R,5R)-3,4-dihydroxy-5-(hydroxymethyl)-1-nonylpyrrolidin-2-yl)-N-methylacetamide] |
| > 300 | >49.4 | 6070 | CCCCCCN1[C@H](CC(=O)NC)[C@H](O)[C@@H](O)[C@@H]1CO [Compound A032, 2-((2R,3S,4S,5S)-1-hexyl-3,4-dihydroxy-5-(hydroxymethyl)pyrrolidin-2-yl)-N-methylacetamide] |
| > 300 | >555 | 537 | CCCNC(=O)C[C@H]1N[C@H](CO)[C@@H](O)[C@H]1O [Compound A004, 2-((2R,3S,4R,5R)-3,4-dihydroxy-5-(hydroxymethyl)pyrrolidin-2-yl)-N-propylacetamide] |
| 14 | 1.37 | 10200 | CNC(=O)[C@H]1NC[C@@H](O)[C@@H]1O [Compound A043, (2S,3R,4R)-3,4-dihydroxy-N-methylpyrrolidine-2-carboxamide] |
| > 300 | >2.38 | 125000 | O=C(C[C@@H]1[C@H](O)[C@H](O)[C@@H](CO)N1CCCc1ccccc1)NCCO [Compound A029, 2-((2R,3S,4R,5R)-3,4-dihydroxy-5-(hydroxymethyl)-1-(3-phenylpropyl)pyrrolidin-2-yl)-N-(2-hydroxyethyl)acetamide] |
| > 300 | >2 | 130000 | CC(C)NC(=O)C[C@H]1N[C@H](CO)[C@@H](O)[C@H]1O [Compound A013, 2-((2R,3S,4R,5R)-3,4-dihydroxy-5-(hydroxymethyl)pyrrolidin-2-yl)-N-isopropylacetamide] |
| 0.13 | 4.66 | 27.9 | CNC(=O)C[C@H]1N[C@H](CO)[C@@H](O)[C@@H]1O [Compound A044, 2-((2R,3R,4R,5R)-3,4-dihydroxy-5-(hydroxymethyl)pyrrolidin-2-yl)-N-methylacetamide] |
| 2.76 | 4.71 | 586 | CNC(=O)C[C@@H]1N[C@H](CO)[C@@H](O)[C@@H]1O [Compound A045, 2-((2S,3R,4R,5R)-3,4-dihydroxy-5-(hydroxymethyl)pyrrolidin-2-yl)-N-methylacetamide] |
| > 300 | >234 | 1250 | CCNC(=O)C[C@H]1N[C@H](CO)[C@@H](O)[C@H]1O [Compound A006, 2-((2R,3S,4R,5R)-3,4-dihydroxy-5-(hydroxymethyl)pyrrolidin-2-yl)-N-ethylacetamide] |
| > 300 | >585 | 512 | CCNC(=O)C[C@@H]1[C@@H](O)[C@H](O)[C@@H](CO)N1CCOc1ccc(Cl)cc1Cl [Compound A062, 2-((2R,3R,4R,5R)-1-(2-(2,4-dichlorophenoxy)ethyl)-3,4-dihydroxy-5-(hydroxymethyl)pyrrolidin-2-yl)-N-ethylacetamide] |
| > 300 | >6211 | 48 | CCCCCCN1[C@H](CC(=O)NCCC)[C@H](O)[C@H](O)[C@H]1CO [Compound A023, 2-((2R,3S,4R,5R)-1-hexyl-3,4-dihydroxy-5-(hydroxymethyl)pyrrolidin-2-yl)-N-propylacetamide] |
| 0.0099 | 0.42 | 23.7 | CCCCCCN1[C@H](CO)[C@@H](O)[C@H](O)[C@H]1CC(=O)NC [Compound A046, 2-((2R,3R,4R,5R)-1-hexyl-3,4-dihydroxy-5-(hydroxymethyl)pyrrolidin-2-yl)-N-methylacetamide] |
| > 300 | >283 | 1060 | CCCCCCN1[C@H](CC(=O)NC2CC2)[C@H](O)[C@H](O)[C@H]1CO [Compound A049, N-cyclopropyl-2-((2R,3S,4R,5R)-1-hexyl-3,4-dihydroxy-5-(hydroxymethyl)pyrrolidin-2-yl)acetamide] |
